Values quoted from earlier work in US10610500B2, “Chemosensory receptor ligand-based therapies” (Anji Pharma (US) LLC, priority 2011, dated 2020).

Target: T1, sweet receptor (Homo sapiens, UniProt Q7RTX0+Q8TE23)
T1 sequence (Q8TE23 20-839): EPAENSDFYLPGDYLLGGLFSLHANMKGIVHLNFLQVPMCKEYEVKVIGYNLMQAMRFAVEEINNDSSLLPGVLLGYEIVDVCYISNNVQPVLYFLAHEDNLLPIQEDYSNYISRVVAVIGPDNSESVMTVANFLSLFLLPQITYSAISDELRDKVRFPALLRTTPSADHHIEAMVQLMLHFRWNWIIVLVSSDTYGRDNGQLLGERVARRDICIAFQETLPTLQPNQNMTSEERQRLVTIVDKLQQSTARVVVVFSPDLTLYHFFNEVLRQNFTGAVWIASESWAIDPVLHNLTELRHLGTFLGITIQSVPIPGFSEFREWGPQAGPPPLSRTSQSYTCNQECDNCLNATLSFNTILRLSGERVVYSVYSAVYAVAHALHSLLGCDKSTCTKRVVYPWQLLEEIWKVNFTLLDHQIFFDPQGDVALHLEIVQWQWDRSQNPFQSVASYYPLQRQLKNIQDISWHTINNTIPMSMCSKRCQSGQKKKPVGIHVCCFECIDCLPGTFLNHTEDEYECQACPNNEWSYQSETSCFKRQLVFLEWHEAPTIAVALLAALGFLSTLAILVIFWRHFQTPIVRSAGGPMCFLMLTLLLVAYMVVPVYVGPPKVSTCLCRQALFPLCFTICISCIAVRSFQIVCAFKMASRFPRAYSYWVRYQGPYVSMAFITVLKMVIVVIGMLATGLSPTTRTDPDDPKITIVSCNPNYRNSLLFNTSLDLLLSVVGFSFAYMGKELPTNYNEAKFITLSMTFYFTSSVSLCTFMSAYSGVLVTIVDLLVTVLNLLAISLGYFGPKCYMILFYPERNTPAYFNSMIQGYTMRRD
T1 sequence (Q7RTX0 21-852): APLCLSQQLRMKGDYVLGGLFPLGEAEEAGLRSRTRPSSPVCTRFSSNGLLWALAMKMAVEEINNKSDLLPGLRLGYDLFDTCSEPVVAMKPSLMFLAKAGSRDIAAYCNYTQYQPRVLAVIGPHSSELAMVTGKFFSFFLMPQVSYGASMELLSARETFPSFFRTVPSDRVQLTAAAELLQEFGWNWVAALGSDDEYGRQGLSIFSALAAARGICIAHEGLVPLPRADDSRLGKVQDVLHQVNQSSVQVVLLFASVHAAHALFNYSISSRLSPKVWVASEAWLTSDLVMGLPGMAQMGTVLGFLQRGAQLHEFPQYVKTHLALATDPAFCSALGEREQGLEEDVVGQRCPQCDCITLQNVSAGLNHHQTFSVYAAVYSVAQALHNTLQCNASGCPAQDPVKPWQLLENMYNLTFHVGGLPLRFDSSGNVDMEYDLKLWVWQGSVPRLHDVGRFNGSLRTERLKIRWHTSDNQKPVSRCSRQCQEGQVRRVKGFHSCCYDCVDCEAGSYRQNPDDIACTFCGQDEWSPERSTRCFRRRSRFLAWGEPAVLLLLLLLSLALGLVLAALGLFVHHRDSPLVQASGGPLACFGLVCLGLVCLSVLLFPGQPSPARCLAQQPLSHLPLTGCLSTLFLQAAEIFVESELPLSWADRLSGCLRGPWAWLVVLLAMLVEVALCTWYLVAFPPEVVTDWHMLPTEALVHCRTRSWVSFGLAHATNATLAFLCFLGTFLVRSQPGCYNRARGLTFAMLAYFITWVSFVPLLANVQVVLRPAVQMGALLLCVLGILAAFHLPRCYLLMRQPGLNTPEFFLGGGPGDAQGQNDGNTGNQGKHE
Conditions: relative sweetness on a weight comparison basis to sucrose (=1.0); ranges: relative sweetness varied with the concentration of sucrose

Row | Molecule | Sweetness/potency
1 | Cyclocarioside A | 200
2 | CC1(C)[C@@H](O[C@H]2O[C@H](C(=O)O)[C@@H](O)[C@H](O)[C@H]2O[C@@H]2OC[C@H](O)[C@H](O)[C@H]2O)CC[C@]2(C)[C@H]3C(=O)C=C4[C@@H]5C[C@@](C)(C(=O)O)CC[C@]5(C)CC[C@@]4(C)[C@]3(C)CC[C@@H]12 [Araboglycyrrhizin] | 150
3 | Baiyunoside | 500
4 | Albiziasaponin B | 600
5 | CC(=O)O[C@H]1C(=O)c2c(O)cc(O)cc2O[C@@H]1c1ccc(O)c(O)c1 [(2R,3R)-Dihydroquercetin 3-O-acetate] | 80
6 | COC(=O)[C@H]1O[C@@H](O[C@H]2[C@H](O[C@H]3CC[C@]45C[C@]46CC[C@]4(C)[C@@H]([C@H](C)[C@@H]7CC=C(C)C(=O)O7)CC[C@@]4(C)[C@@H]6CC[C@H]5[C@]3(C)C(=O)O)O[C@H](CO)[C@@H](O)[C@@H]2O)[C@H](O)[C@@H](O)[C@@H]1O [Abrusoside B] | 100
7 | Monellin | 3,000
8 | COc1c(O)cc2c(c1O)C(=O)[C@H](OC(C)=O)[C@@H](c1ccc(O)cc1)O2 [(2R,3R)-2,3-Dihydro-5,7,4'-trihydroxy-6-methoxy-3-O-acetylflavonol] | 20
9 | COc1ccc(C2Oc3cc(O)cc(O)c3C(=O)C2OC(C)=O)cc1O (stereo not drawn) [Dihydroquercetin 3-O-acetate 4'-methyl ether] | 400
10 | C/C(=C\CC[C@@H](C)[C@H]1CC[C@@]2(C)[C@@H]3CC=C4[C@@H](CC[C@H](O[C@@H]5O[C@H](CO)[C@@H](O)[C@H](O)[C@H]5O)C4(C)C)[C@]3(C)[C@H](O)C[C@]12C)CO[C@@H]1O[C@H](CO[C@@H]2O[C@H](CO)[C@@H](O)[C@H](O)[C@H]2O)[C@@H](O)[C@H](O)[C@H]1O [Carnosifloside VI] | 77
11 | Cyclocaryoside I | 250
12 | COc1c(O)cc2c(c1O)C(=O)[C@H](OC(C)=O)[C@@H](c1ccc(O)c(O)c1)O2 [(2R,3R)-2,3-Dihydro-5,7,3',4'-tetrahydroxy-6-methoxy-3-O-acetylflavonol] | 25
13 | Curculin | 550
14 | CC1=CC[C@@H]([C@@H](C)[C@H]2CC[C@@]3(C)[C@@H]4CC[C@H]5[C@](C)(C(=O)O)[C@@H](O[C@@H]6O[C@H](CO)[C@@H](O)[C@H](O)[C@H]6O[C@@H]6O[C@H](C(=O)O)[C@@H](O)[C@H](O)[C@H]6O)CC[C@@]56C[C@@]46CC[C@]23C)OC1=O [Abrusoside D] | 75
15 | CC(C)=CCC[C@](C)(O)[C@@H]1CCC(C)=CC1=O [(+)-Hernandulcin] | 1,500
16 | CC1(C(=O)O)CCC2(C)CCC3(C)C(=CC(=O)C4C5(C)CCC(OC6OC(C(=O)O)C(O)C(O)C6OC6OCC(O)(CO)C6O)C(C)(C)C5CCC43C)C2C1 (stereo not drawn) [Apioglycyrrhizin] | 300
17 | C=C(C)[C@@H]1CC=C(/C=N/O)CC1 [Perillartine] | 370
18 | CC1=CC[C@@H]([C@@H](C)[C@H]2CC[C@@]3(C)[C@@H]4CC[C@H]5[C@](C)(C(=O)O)[C@@H](O[C@@H]6O[C@H](CO)[C@@H](O)[C@H](O)[C@H]6O)CC[C@@]56C[C@@]46CC[C@]23C)OC1=O [Abrusoside A] | 30
19 | Carnosifloside V | 51
20 | CC1(C)C[C@H]2C3=CC[C@@H]4[C@@]5(C)CC[C@H](O[C@@H]6O[C@H](CO[C@@H]7OC[C@H](O)[C@H](O)[C@H]7O[C@@H]7OC[C@@H](O)[C@H](O)[C@H]7O)[C@@H](O)[C@H](O)[C@H]6O)C(C)(C)[C@@H]5CC[C@@]4(C)[C@]3(C)C[C@@H](O)[C@@]23C[C@@H]1OC3=O [Albiziasaponin A] | 5
21 | C/C(=C\CO)CCC1=C(C=O)CC(OC2OCC(O)C(O)C2O)C2C(C)(CO)CCCC12C (stereo not drawn) [Gaudichaudioside A] | 55
22 | Oc1cc2c(cc1O)[C@@H]1c3ccc(O)c(O)c3OC[C@]1(O)C2 [Hematoxylin] | 120
23 | CC1=CC[C@@H]([C@@H](C)[C@H]2CC[C@@]3(C)[C@@H]4CC[C@H]5[C@](C)(C(=O)O)[C@@H](O[C@@H]6O[C@H](CO)[C@@H](O)[C@H](O)[C@H]6O[C@@H]6O[C@H](CO)[C@@H](O)[C@H](O)[C@H]6O)CC[C@@]56C[C@@]46CC[C@]23C)OC1=O [Abrusoside C] | 50
24 | Brazzein: sweet protein of Pentadiplandra brazzeana Baillon (QDKCKKVYENYPVSKCQLANQCNYDCKLDKHARSGECFYDEKRNLQCICDYCEY; UniProt P56552 1-54, looked up) | 2,000
25 | O=C/C=C/c1ccccc1 [Trans-Cinnamaldehyde] | 50

Now from value to molecule:

Row | Sweetness/potency | Molecule
26 | 85 | Periandrin IV
27 | 35 | Oc1ccc([C@H]2Oc3c(c(O)cc4c3[C@H]3c5c(O)cc(O)cc5O[C@@](c5ccc(O)cc5)(O4)[C@@H]3O)[C@H](c3c(O)cc(O)c4c3O[C@H](c3ccc(O)cc3)[C@@H](O)C4)[C@H]2O)cc1 [Selligueain A]
28 | 54 | Scandenoside R6
29 | 90 | CC1(C)[C@@H](O[C@@H]2O[C@H](C(=O)O)[C@@H](O)[C@H](O)[C@H]2O[C@@H]2O[C@H](C(=O)O)[C@@H](O)[C@H](O)[C@H]2O)CC[C@]2(C=O)[C@H]3CC[C@@H]4C5=C[C@@](C)(C(=O)O)CC[C@]5(C)CC[C@@]4(C)[C@]3(C)CC[C@@H]12 [Periandrin I]
30 | 210 | C=C1C[C@@]23CC[C@H]4[C@@](C)(CCC[C@@]4(C)C(=O)O[C@@H]4O[C@H](CO)[C@@H](O)[C@H](O)[C@H]4O)[C@@H]2CC[C@]1(O[C@@H]1O[C@H](CO)[C@@H](O)[C@H](O)[C@H]1O[C@@H]1O[C@H](CO)[C@@H](O)[C@H](O)[C@H]1O)C3 [Stevioside]
31 | 1,000 | COc1ccc(CCC(=O)c2c(O)cc(O[C@@H]3O[C@H](CO)[C@@H](O)[C@H](O)[C@H]3O[C@@H]3O[C@@H](C)[C@H](O)[C@@H](O)[C@H]3O)cc2O)cc1O [Neohesperidin dihydrochalcone]
32 | 500 | Pentadin
33 | 92 | CC1(C(=O)O)C=C2C3CCC4C5(CO)CCC(OC6OC(C(=O)O)C(O)C(O)C6OC6OC(C(=O)O)C(O)C(O)C6O)C(C)(C)C5CCC4(C)C3(C)CCC2(C)CC1 (stereo not drawn) [Periandrin III]
34 | 30 | Rebaudioside C
35 | 13 | C/C=C/c1ccc(OC)cc1 [trans-Anethole]
36 | 100 | C=C(C)C1CCC2(C)C(CC(OC3OCC(O)C(O)C3O)C3C(C(C)(O)C/C=C/C(C)(C)O)CCC32C)C1(C)CCC(=O)O (stereo not drawn) [Pterocaryoside B]
37 | 90 | C=C1C[C@@]23CC[C@H]4[C@@](C)(CCC[C@@]4(C)C(=O)O)[C@@H]2CC[C@]1(O[C@@H]1O[C@H](CO)[C@@H](O)[C@H](O)[C@H]1O[C@@H]1O[C@H](CO)[C@@H](O)[C@H](O)[C@H]1O)C3 [Steviolbioside]
38 | 50 | Pterocaryoside A
39 | 1,600 | Thaumatin
40 | 95 | Periandrin II
41 | 400 | COc1ccc([C@H]2Cc3cccc(O)c3C(=O)O2)cc1O [Phyllodulcin]
42 | 600 | Polypodoside A
43 | 150 | Rebaudioside B
44 | 300 | C[C@@H]1O[C@@H](O[C@H]2[C@H](Oc3cc(O)c(C(=O)CCc4ccc(O)cc4)c(O)c3)O[C@H](CO)[C@@H](O)[C@@H]2O)[C@H](O)[C@H](O)[C@H]1O [Naringin dihydrochalcone]
45 | 220 | CC1(C(=O)O)C=C2C3CCC4C5(C=O)CCC(OC6OC(C(=O)O)C(O)C(O)C6OC6OCC(O)C(O)C6O)C(C)(C)C5CCC4(C)C3(C)CCC2(C)CC1 (stereo not drawn) [Periandrin V]
